Reference: paper PMC6199744, “Development of Chemical Proteomics for the Folateome and Analysis of the Kinetoplastid Folateome” (ACS Infectious Diseases, 2018)

Test system: L. major lysate proteins
Assay: Multitargeted bead mixture chemoproteomics, single concentration competition, proteome-wide
Assay type: binding
Conditions: for fold change: vehicle control = 1

## NCCOCCOCC(=O)Nc1nc2ncc(CNc3ccc(C(=O)NC(CCC(=O)O)C(=O)O)cc3)nc2c(=O)[nH]1 (stereo not drawn) [compound 6]
Protein LMJF.28.0710 HYPOTHETICAL PROTEIN, CONSERVED (SNARE associated Golgi protein, putative)
  fold change: 1
Protein LMJF.28.0930 HY[…], CONSERVED
  fold change vs vehicle control: 1.01
Protein LMJF.28.0960 40S RIBOSOMAL PROTEIN S14
  fold change vs vehicle control: 1.09
Protein LMJF.28.1530 ATP DEPENDENT DEAD-BOX HELICASE, PUTATIVE
  fold change vs vehicle control: 0.91
Protein LMJF.28.1730, PROTEASOME REGULATORY NON-ATP-ASE SUBUNIT 2, PUTATIVE
  fold change relative to vehicle control: 1.1
Protein LMJF.28.2310, EUKARYOTIC TRANSLATION INITIATION FACTOR, PUTATIVE
  fold change relative to vehicle control: 1.1
Protein LMJF.28.2430 VACUOLAR ATP SYNTHASE SUBUNIT B, PUTATIVE
  fold change vs vehicle control: 0.97
Protein LMJF.28.2770, HEAT-SHOCK PROTEIN HSP70, PUTATIVE
  fold change relative to vehicle control: 1.35
Protein LMJF.28.2910 GLUTAMATE DEHYDROGENASE, PUTATIVE
  fold change: 0.9
Protein LMJF.29.0120 PROTEASOME REGULATORY NON-ATPASE SUBUNIT, PUTATIVE
  fold change vs vehicle control: 1
Protein LMJF.29.0620 ATP-BINDING CASSETTE PROTEIN SUBFAMILY A, MEMBER 10, PUTATIVE
  fold change: 0.81
Protein LMJF.29.0760 […] BI[…], PUTATIVE,HEAT SHOCK PROTEIN 90, PUTATIVE
  fold change vs vehicle control: 1.05
Protein LMJF.29.0850, HIGH MOBILITY GROUP PROTEIN HOMOLOG TDP-1, PUTATIVE
  fold change relative to vehicle control: 1.17
Protein LMJF.29.0940 HY[…], CONSERVED
  fold change vs vehicle control: 1.19
Protein LMJF.29.1160 TRYPAREDOXIN
  fold change vs vehicle control: 0.8
Protein LMJF.29.1240 HYPOTHETICAL PROTEIN, UNKNOWN FUNCTION
  fold change vs vehicle control: 0.95
Protein LMJF.29.1270 100 kDa heat shock protein (Hsp100)
  fold change vs vehicle control: 1.02
Protein LMJF.29.1310 CARNITINE/CHOLINE ACETYLTRANSFERASE, PUTATIVE
  fold change vs vehicle control: 1.07
Protein LMJF.29.1760, PAR[…] PROTEIN 1D, PUTATIVE
  fold change relative to vehicle control: 1.02
Protein LMJF.29.1780 DIPHTHAMIDE SYNTHESIS PROTEIN, PUTATIVE
  fold change vs vehicle control: 0.96
Protein LMJF.29.2200 GTP-BINDING PROTEIN, PUTATIVE (dynamin-1-like protein)
  fold change: 1.03
Protein LMJF.29.2310 ENOYL-COA HYDRATASE/ISOMERASE-LIKE PROTEIN
  fold change: 0.99
Protein LMJF.29.2360 ASPARTYL AMINOPEPTIDASE, PUTATIVE,METALLO-PEPTIDASE, CLAN MH, FAMILY M20
  fold change vs vehicle control: 0.95
Protein LMJF.29.2860 40S RIBOSOMAL PROTEIN S19-LIKE PROTEIN
  fold change: 1.12
Protein LMJF.30.0580 HY[…], CONSERVED (AMP-binding enzyme, putative)
  fold change: 1.03
Protein LMJF.30.0850 SURFACE PROTEIN AMASTIN, PUTATIVE
  fold change: 0.98
Protein LMJF.30.1250 PYRIDOXAL KINASE, PUTATIVE
  fold change vs vehicle control: 1.24
Protein LMJF.30.2580 RETICULON DOMAIN PROTEIN, 22 KDA POTENTIALLY AGGRAVATING PROTEIN (PAPLE22)
  fold change vs vehicle control: 0.95
Protein LMJF.30.3090, HY[…], CONSERVED (RNA-binding protein 42, putative)
  fold change relative to vehicle control: 1.16
Protein LMJF.30.3240 GLUTAMYL-TRNA SYNTHETASE, PUTATIVE
  fold change vs vehicle control: 1.11
Protein LMJF.30.3380 PAS-DOMAIN CONTAINING PHOSPHOGLYCERATE KINASE, PUTATIVE
  fold change: 0.84
Protein LMJF.30.3430 HY[…], CONSERVED (protein mkt1, putative)
  fold change: 1.04
Protein LMJF.30.3520 S-ADENOSYLMETHIONINE SYNTHETASE
  fold change: 0.86
Protein LMJF.30.3570 ZINC FINGER-DOMAIN PROTEIN, PUTATIVE
  fold change: 0.86
Protein LMJF.31.0080, HYPOTHETICAL PROTEIN, CONSERVED
  fold change relative to vehicle control: 1.2
Protein LMJF.31.0340 AMINO ACID PERMEASE, PUTATIVE
  fold change vs vehicle control: 1.17
Protein LMJF.31.1130 N-ACYL-L-AMINO ACID AMIDOHYDROLASE, PUTATIVE
  fold change: 0.98
Protein LMJF.31.1640 THIOLASE PROTEIN-LIKE PROTEIN
  fold change vs vehicle control: 1.09
Protein LMJF.31.2150, PROSTAGLANDIN F2-ALPHA SYNTHASE/D-ARABINOSE DEHYDROGENASE
  fold change relative to vehicle control: 1.02
Protein LMJF.31.2250 3,2-TRANS-ENOYL-COA ISOMERASE, MIT[…], PUTATIVE
  fold change vs vehicle control: 0.97
Protein LMJF.32.0750 RNA BINDING PROTEIN, PUTATIVE
  fold change vs vehicle control: 1.19
Protein LMJF.32.1060 DYNEIN, PUTATIVE
  fold change vs vehicle control: 0.96
Protein LMJF.32.1820, IRON […], PUTATIVE
  fold change relative to vehicle control: 1.08
Protein LMJF.32.2320, C-14 STEROL REDUCTASE, PUTATIVE
  fold change relative to vehicle control: 1.02
Protein LMJF.32.2950, NUCLEOSIDE DIPHOSPHATE KINASE B
  fold change relative to vehicle control: 0.94
Protein LMJF.32.3870 MYOSIN XXI
  fold change vs vehicle control: 0.97
Protein LMJF.33.0240, THIOL-DEPENDENT REDUCTASE 1
  fold change relative to vehicle control: 1.18
Protein LMJF.33.0280 HYPOTHETICAL PROTEIN, CONSERVED
  fold change: 0.92
Protein LMJF.33.0890, HY[…], CONSERVED
  fold change relative to vehicle control: 1.01
Protein LMJF.33.1070 HY[…], UNKNOWN FUNCTION
  fold change vs vehicle control: 1.07
Protein LMJF.33.1330 CYSTEINE CONJUGATE BETA-LYASE, AMINOTRANSFERASE- LIKE PROTEIN
  fold change vs vehicle control: 1.04
Protein LMJF.33.1590 HYPOTHETICAL PROTEIN, CONSERVED (3-ketoacyl-CoA reductase, putative)
  fold change: 0.97
Protein LMJF.33.1860, ATP-BINDING CASSETTE PROTEIN SUBFAMILY D, MEMBER 3, PUTATIVE
  fold change relative to vehicle control: 1.15
Protein LMJF.33.2340, SUCCINYL-COA:3-KETOACID-COENZYME A TRANSFERASE, MIT[…], PUTATIVE
  fold change relative to vehicle control: 1.18
Protein LMJF.33.2440, HY[…], CONSERVED
  fold change relative to vehicle control: 1.19
Protein LMJF.33.2540, CARBOXYPEPTIDASE, PUTATIVE,METALLO-PEPTIDASE, CLAN MA(E), FAMILY M32
  fold change relative to vehicle control: 1.79
Protein LMJF.33.3150 40S RIBOSOMAL PROTEIN S13, PUTATIVE
  fold change: 0.88
Protein LMJF.34.0140, MALATE DEHYDROGENASE
  fold change relative to vehicle control: 1.47
Protein LMJF.34.0440 RIBOSOMAL PROTEIN S25
  fold change vs vehicle control: 1.1
Protein LMJF.34.2580, HY[…], CONSERVED (ALBA-domain protein 3)
  fold change relative to vehicle control: 1.11
Protein LMJF.34.3250, PUTATIVE PYRUVATE/INDOLE-PYRUVATE CARBOXYLASE, PUTATIVE
  fold change relative to vehicle control: 0.98
Protein LMJF.34.4370 20S […] 7 SUBUNIT, (PUTATIVE)
  fold change: 0.96
Protein LMJF.34.4620 HY[…], CONSERVED
  fold change vs vehicle control: 1.01
Protein LMJF.35.0070 PROHIBITIN, PUTATIVE
  fold change: 1.04
Protein LMJF.35.0360 ENOYL-COA HYDRATASE/ISOMERASE FAMILY PROTEIN, CONSERVED
  fold change vs vehicle control: 1.24
Protein LMJF.35.0370 ATP-DEPENDENT DEAD-BOX RNA HELICASE, PUTATIVE
  fold change: 1.08
